Assay results as given in patent publication US20120202856A1, “SUBSTITUTED BENZIMDAZOLE DERIVATIVES USEFUL AS TRPM8 RECEPTOR MODULATORS” (priority 2011, published 2012).
Several values for one entry are separate records, joined by “and”; a condition that tells them apart may be missing. Equal values may be shown once. Where a name gives a salt, the structure may show the parent alone. Read-outs that look alike come from different tables or passages of the source.

Molecular target: T1, canine TRPM8 (Canis lupus familiaris, UniProt Q1A7N1)
T1 construct: expressed in transfected cells
T1 sequence (Q1A7N1 1-1104): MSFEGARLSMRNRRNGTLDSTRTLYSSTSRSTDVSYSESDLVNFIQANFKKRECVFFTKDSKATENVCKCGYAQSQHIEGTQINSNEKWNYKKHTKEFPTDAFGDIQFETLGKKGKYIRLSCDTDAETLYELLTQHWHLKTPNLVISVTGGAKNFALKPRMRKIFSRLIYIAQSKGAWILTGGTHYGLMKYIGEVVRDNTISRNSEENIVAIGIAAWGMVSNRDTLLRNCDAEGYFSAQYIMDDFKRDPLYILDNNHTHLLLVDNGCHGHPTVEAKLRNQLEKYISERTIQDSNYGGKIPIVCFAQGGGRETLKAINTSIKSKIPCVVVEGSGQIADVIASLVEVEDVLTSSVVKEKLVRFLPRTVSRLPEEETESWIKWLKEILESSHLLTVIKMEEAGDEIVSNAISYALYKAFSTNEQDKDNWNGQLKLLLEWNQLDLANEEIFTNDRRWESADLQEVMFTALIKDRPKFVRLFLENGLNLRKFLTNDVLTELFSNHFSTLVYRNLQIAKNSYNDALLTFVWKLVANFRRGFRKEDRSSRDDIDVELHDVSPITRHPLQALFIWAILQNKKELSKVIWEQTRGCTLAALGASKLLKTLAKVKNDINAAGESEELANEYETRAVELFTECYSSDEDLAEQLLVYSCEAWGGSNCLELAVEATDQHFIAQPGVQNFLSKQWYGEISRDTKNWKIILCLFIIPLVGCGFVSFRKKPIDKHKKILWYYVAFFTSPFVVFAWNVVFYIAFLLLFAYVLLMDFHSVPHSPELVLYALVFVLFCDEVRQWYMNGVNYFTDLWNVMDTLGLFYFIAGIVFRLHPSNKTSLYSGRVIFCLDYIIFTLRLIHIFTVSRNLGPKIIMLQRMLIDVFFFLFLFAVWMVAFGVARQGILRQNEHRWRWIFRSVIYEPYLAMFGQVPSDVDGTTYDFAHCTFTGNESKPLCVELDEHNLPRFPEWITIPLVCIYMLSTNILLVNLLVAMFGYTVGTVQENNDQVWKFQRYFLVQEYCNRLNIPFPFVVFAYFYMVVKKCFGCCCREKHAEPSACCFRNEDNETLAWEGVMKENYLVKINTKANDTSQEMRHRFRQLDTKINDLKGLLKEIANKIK
Assay: In Vitro Canine TRPM8 Functional Assay (intracellular Ca2+ fluorescence, icilin activation, HEK293 cells)
Format: cell-based
Settings: for inhibition at 0.2 µM / % Inh (%) @0.2 μM, in vitro TRP M8 Activity: individually measured values; for IC50: HEK293 cells expressing canine TRPM8, icilin activation, individually measured values (batches/salt forms), read-out: IC50 (nM), in vitro TRP M8 Activity; for % Inh (%) @0.2 μM, in vitro TRP M8 Activity: 0.2 μM test compound
Method in brief: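 HEK293 cells expressing canine TRPM8 loaded with Calcium 3 dye, then stimulated with icilin; intracellular Ca2+ rise read on FLIPR or FDSS. Peak fluorescence minus basal normalized to percent maximal response; IC50 from sigmoidal nonlinear regression of quadruplicate wells.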

[1] = HEK293, read-out: % Inh (%) @0.2 μM, in vitro TRP M8 Activity, 0.2 μM test compound
[2] = HEK293, 0.2 μM test compound, read-out: % Inh (%) @0.2 μM, in vitro TRP M8 Activity

SMILES	IC50	inhibition at 0.2 µM [2] [%]	also measured
CC(C)(C)c1cc(-c2nc3cc(-c4c(F)cccc4F)cc(C(F)(F)F)c3[nH]2)on1 [Compound 140, 2-(3-tert-Butyl-isoxazol-5-yl)-5-(2,6-difluoro-phenyl)-7-trifluoromethyl-1H-benzimidazole sodium salt]	4.5 nM and 7.4 nM	–	inhibition at 0.2 µM [1]: 100%
CC(C)(C)c1cc(-c2nc3cc(-c4ccccc4Cl)cc(C(F)(F)F)c3[nH]2)on1 [Compound 141, 2-(3-tert-Butyl-isoxazol-5-yl)-5-(2-chloro-phenyl)-7-trifluoromethyl-1H-benzimidazole hydrochloride]	5.4 nM and 8.7 nM	99	–
CC(C)(C)c1cc(-c2nc3cc(-c4ccccc4C(F)(F)F)cc(C(F)(F)F)c3[nH]2)on1 [Compound 142, 2-(3-tert-Butyl-isoxazol-5-yl)-7-trifluoromethyl-5-(2-trifluoromethyl-phenyl)-1H-benzimidazole sodium salt]	3 nM and 3.3 nM	–	inhibition at 0.2 µM [1]: 99%
CC(C)(C)c1cc(-c2nc3cc(-c4ccccc4OC(F)(F)F)cc(C(F)(F)F)c3[nH]2)on1 [Compound 143, 2-(3-tert-Butyl-isoxazol-5-yl)-5-(2-trifluoromethoxy-phenyl)-7-trifluoromethyl-1H-benzimidazole sodium salt]	2.5 nM and 3.7 nM	–	inhibition at 0.2 µM [1]: 99%
CC(C)(C)c1cc(-c2nc3cc(-c4c(F)cccc4C(F)(F)F)cc(C(F)(F)F)c3[nH]2)on1 [Compound 144, 2-(3-tert-Butyl-isoxazol-5-yl)-5-(2-fluoro-6-trifluoromethyl-phenyl)-7-trifluoromethyl-1H-benzimidazole hydrochloride]	3.9 nM and 4 nM	99	–
CC(C)(C)c1cc(-c2nc3cc(-c4c(F)cccc4OC(F)(F)F)cc(C(F)(F)F)c3[nH]2)on1 [Compound 145, 2-(3-tert-Butyl-isoxazol-5-yl)-5-(2-fluoro-6-trifluoromethoxy-phenyl)-7-trifluoromethyl-1H-benzimidazole sodium salt]	3.7 nM and 8.1 nM	–	inhibition at 0.2 µM [1]: 100%
Cn1nc(C(C)(C)C)c(Cl)c1-c1nc2cc(-c3c(F)cccc3C#N)cc(C(F)(F)F)c2[nH]1 [Compound 146, 2-[2-(5-tert-Butyl-4-chloro-2-methyl-2H-pyrazol-3-yl)-7-trifluoromethyl-1H-benzimidazol-5-yl]-3-fluoro-benzonitrile hydrochloride]	12.2 nM and 15 nM	100	–
Cn1nc(C(C)(C)C)c(C#N)c1-c1nc2cc(-c3ccccc3F)cc(C(F)(F)F)c2[n-]1.[Na+] [Compound 147, 3-tert-Butyl-5-[(5-(2-fluoro-phenyl)-7-trifluoromethyl-1H-benzimidazol-2-yl]-1-methyl-1H-pyrazole-4-carbonitrilesodium salt]	5.9 nM and 4.8 nM and 5.1 nM	100	–
Cn1nc(C(C)(C)C)c(C#N)c1-c1nc2cc(-c3ccccc3F)cc(C(F)(F)F)c2[n-]1.[Na+] [Compound 147]	–	–	% Inh (%) @0.2 μM, in vitro TRP M8 Activity (sodium salt, 0.2 µM): 98%
Cl.Cn1nc(C(C)(C)C)c(C#N)c1-c1nc2cc(-c3ccccc3Cl)cc(C(F)(F)F)c2[nH]1 [Compound 148, 3-tert-Butyl-5-[5-(2-chloro-phenyl)-7-trifluoromethyl-1H-benzimidazol-2-yl]-1-methyl-1H-pyrazole-4-carbonitrile hydrochloride]	5 nM and 4.1 nM and 2.9 nM	100	% Inh (%) @0.2 μM, in vitro TRP M8 Activity (hydrochloride, 0.2 µM): 99%
Cn1nc(C(C)(C)C)c(C#N)c1-c1nc2cc(-c3ccccc3C(F)(F)F)cc(C(F)(F)F)c2[nH]1.[Na] [Compound 149, 3-tert-Butyl-1-methyl-5-[7-trifluoromethyl-5-(2-trifluoromethyl-phenyl)-1H-benzimidazol-2-yl]-1H-pyrazole-4-carbonitrile sodium salt]	3.8 nM and 5.1 nM and 3.2 nM	–	% Inh (%) @0.2 μM, in vitro TRP M8 Activity (sodium salt, 0.2 µM): 99%; inhibition at 0.2 µM [1]: 100%
Cn1nc(C(C)(C)C)c(C#N)c1-c1nc2cc(-c3ccccc3OC(F)(F)F)cc(C(F)(F)F)c2[nH]1.[Na] [Compound 150, 3-tert-Butyl-1-methyl-5-[5-(2-trifluoromethoxy-phenyl)-7-trifluoromethyl-1H-benzimidazol-2-yl]-1H-pyrazole-4-carbonitrile sodium salt]	5.7 nM and 7.2 nM and 8.3 nM	–	% Inh (%) @0.2 μM, in vitro TRP M8 Activity: 100, 100%; inhibition at 0.2 µM [1]: 100%
Cn1nc(C(C)(C)C)c(C#N)c1-c1nc2cc(-c3c(F)cccc3F)cc(C(F)(F)F)c2[nH]1 [Compound 151, 3-tert-Butyl-5-[5-(2,6-difluoro-phenyl)-7-trifluoromethyl-1H-benzimidazol-2-yl]-1-methyl-1H-pyrazole-4-carbonitrile sodium salt]	4.2 nM and 6 nM and 3.8 nM	–	–
Cn1nc(C(C)(C)C)c(C#N)c1-c1nc2cc(-c3c(F)cccc3C(F)(F)F)cc(C(F)(F)F)c2[nH]1.[Na] [Compound 152, 3-tert-Butyl-5-[5-(2-fluoro-6-trifluoromethyl-phenyl)-7-trifluoromethyl-1H-benzimidazol-2-yl]-1-methyl-1H-pyrazole-4-carbonitrile sodium salt]	5.3 nM and 6.5 nM and 5 nM	–	% Inh (%) @0.2 μM, in vitro TRP M8 Activity (sodium salt, 0.2 µM): 99%; inhibition at 0.2 µM [1]: 100%
Cc1oc(C(C)(C)C)nc1-c1nc2cc(-c3ccccc3C(F)(F)F)cc(C(F)(F)F)c2[nH]1 [Compound 153, 2-(2-tert-Butyl-5-methyl-oxazol-4-yl)-7-trifluoromethyl-5-(2-trifluoromethyl-phenyl)-1H-benzimidazole hydrochloride]	–	25	–
Cc1oc(C(C)(C)C)nc1-c1nc2cc(-c3ccccc3F)cc(C(F)(F)F)c2[nH]1 [Compound 154, 2-(2-tert-Butyl-5-methyl-oxazol-4-yl)-5-(2-fluoro-phenyl)-7-trifluoromethyl-1H-benzimidazole hydrochloride]	–	57	–
Cc1oc(C(C)(C)C)nc1-c1nc2cc(-c3ccccc3Cl)cc(C(F)(F)F)c2[nH]1 [Compound 155, 2-(2-tert-Butyl-5-methyl-oxazol-4-yl)-5-(2-chloro-phenyl)-7-trifluoromethyl-1H-benzimidazole hydrochloride]	–	59	–
Cc1oc(C(C)(C)C)nc1-c1nc2cc(-c3ccccc3OC(F)(F)F)cc(C(F)(F)F)c2[nH]1 [Compound 156, 2-(2-tert-Butyl-5-methyl-oxazol-4-yl)-5-(2-trifluoromethoxy-phenyl)-7-trifluoromethyl-1H-benzimidazole hydrochloride]	–	58	–
Cc1oc(C(C)(C)C)nc1-c1nc2cc(-c3ccccc3)cc(C(F)(F)F)c2[nH]1 [Compound 157, 2-(2-tert-Butyl-5-methyl-oxazol-4-yl)-5-phenyl-7-trifluoromethyl-1H-benzimidazole hydrochloride]	–	41	–
Cc1oc(C(C)(C)C)nc1-c1nc2cc(-c3c(F)cccc3C(F)(F)F)cc(C(F)(F)F)c2[nH]1 [Compound 158, 2-(2-tert-Butyl-5-methyl-oxazol-4-yl)-5-(2-fluoro-6-trifluoromethyl-phenyl)-7-trifluoromethyl-1H-benzimidazole hydrochloride]	–	72	–
Cc1oc(C(C)(C)C)nc1-c1nc2cc(-c3ccccc3OC(F)(F)F)cc(Cl)c2[nH]1 [Compound 159, 2-(2-tert-Butyl-5-methyl-oxazol-4-yl)-7-chloro-5-(2-trifluoromethoxy-phenyl)-1H-benzimidazole hydrochloride]	–	19	–
Cc1oc(C(C)(C)C)nc1-c1nc2cc(-c3ccccc3F)cc(Cl)c2[nH]1 [Compound 161, 2-(2-tert-Butyl-5-methyl-oxazol-4-yl)-7-chloro-5-(2-fluoro-phenyl)-1H-benzimidazole hydrochloride]	–	36	–
Cc1oc(C(C)(C)C)nc1-c1nc2cc(-c3ccccc3Cl)cc(Cl)c2[nH]1 [Compound 163, 2-(2-tert-Butyl-5-methyl-oxazol-4-yl)-7-chloro-5-(2-chloro-phenyl)-1H-benzimidazole hydrochloride]	–	62	–
Cc1oc(C(C)(C)C)nc1-c1nc2cc(-c3ccccc3C(F)(F)F)cc(Cl)c2[nH]1 [Compound 165, 2-(2-tert-Butyl-5-methyl-oxazol-4-yl)-7-chloro-5-(2-trifluoromethyl-phenyl)-1H-benzimidazole hydrochloride]	–	27	–
Cn1nc(C(C)(C)C)c(C#N)c1-c1nc2cc(-c3ccccc3F)cc(Cl)c2[nH]1 [Compound 167, 3-tert-Butyl-5-[7-chloro-5-(2-fluoro-phenyl)-1H-benzimidazol-2-yl]-1-methyl-1H-pyrazole-4-carbonitrile sodium salt]	9.8 nM	100	–
Cn1nc(C(C)(C)C)c(C#N)c1-c1nc2cc(-c3c(F)cccc3F)cc(Cl)c2[nH]1 [Compound 171, 3-tert-Butyl-5-[7-chloro-5-(2,6-difluoro-phenyl)-1H-benzimidazol-2-yl]-1-methyl-1H-pyrazole-4-carbonitrile sodium salt]	8.2 nM	100	–
Cn1nc(C(C)(C)C)c(C#N)c1-c1nc2cc(-c3c(F)cccc3C(F)(F)F)cc(Cl)c2[nH]1 [Compound 172, 3-tert-Butyl-5-[7-chloro-5-(2-fluoro-6-trifluoromethyl-phenyl)-1H-benzimidazol-2-yl]-1-methyl-1H-pyrazole-4-carbonitrile sodium salt]	8.7 nM	100	–
Cn1nc(C(C)(C)C)c(C#N)c1-c1nc2cc(-c3c(F)cccc3OC(F)(F)F)cc(Cl)c2[nH]1 [Compound 173, 3-tert-Butyl-5-[7-chloro-5-(2-fluoro-6-trifluoromethoxy-phenyl)-1H-benzimidazol-2-yl]-1-methyl-1H-pyrazole-4-carbonitrile sodium salt]	10.7 nM	100	–
